Tests used:
Ki67 = assay: Histochemical analysis of GEO tumors: Ki67 staining; type: in vivo; conditions: combination of taxol and HYB 165
From the text: (§1) Tumor specimens from the different groups of mice were examined by histochemical analysis at different time points to evaluate the expression of a variety of biological parameters. […] No other treatment was able to affect RIα expression.
(§2) TGFα and AR are growth factors which bind to EGFR and control human colon cancer growth through autocrine and paracrine mechanisms (F. Ciardiello and G. Tortora, Clin. Cancer Res. 4:821–828 (1998); D. S. Salomon, Crit. Rev. Oncol. Hematol. 19:183–232 (1995)).

[1] = test system: 1A9PTX10 human ovarian cancer cells; assay: Soft agar growth of 1A9PTX10 cells; type: cell-based
Experimental: (§3) Cell lines. The 1A9PTX10 cell line, a paclitaxel (PTX)-resistant clone of the human ovarian carcinoma cell line 1A9, was isolated by exposing 1A9 cells to 5 ng/ml PTX in the presence of 5 μg/ml verapamil, a P glicoprotein antagonist. 1A9PTX10 cells were kindly provided by Dr. Giannakakou, NCI Bethesda, Md., USA. Cells were maintained in RPMI medium supplemented with 10% heat-inactivated FBS, 20 mM HEPES, pH 7.4, penicillin (100 UI/ml), streptomycin (100 μg/ml) and 4 mM glutamine (ICN, Irvine, UK) 15 ng/ml PTX and 5 μg/ml verapamil in a humified atmosphere of 95% air and 5% CO2 at 37° C. 7 days before experiments were performed, PTX and verapamil were removed from culture medium.
(§4) Soft agar growth. Cells (10^4 cells/well) were seeded in 0.5 ml of 0.3% Difco Noble agar (Difco, Detroit, Mich.) supplemented with complete culture medium. This suspension was layered over 0.5 ml of 0.8% agar-medium base layer in 24 multiwell cluster dishes (Becton Dickinson) and treated with various concentrations of HYB 165 or HYB508 every 48 hours for three times. After 12 days the cells were stained with nitroblue tetrazolium (Sigma, St. Louis, Mo.) and colonies larger than 0.05 mm were counted.

[2] = test system: Factor VIII related antigen; assay: Tumor-induced neovascularization (anti-Factor VIII related antigen immunohistochemistry); type: in vivo
From the text: In recent years, the critical role of tumor-induced neovascularization in neoplastic development, progression and metastasis has been elucidated (J. I. Fokman, In: J. Mendelsohn et al., eds., The Molecular Basis of Cancer, pp 206–232, Philadelphia: W B Saunders (1995) . A reliable histologic estimate of novel blood vessels on tumor specimens is the microvessel count (MVC) in the most intense areas of neovascularization. In the present study, tumor-induced neovascularization was quantified by immunohistochemistry using an anti-Factor VIII related antigen monoclonal antibody (N. Weidner, Breast Cancer Res. Treat., 36:169–180 (1995)).

[3] = test system: 1A9PTX22 human ovarian cancer cells; assay: Soft agar growth of 1A9PTX22 cells; type: cell-based
Experimental: as §3, with “lines. The 1A9PTX22 cell line,” for “lines. The 1A9PTX10 cell line,”, “glicoprotein antagonist. 1A9PTX22 cells were” for “glicoprotein antagonist. 1A9PTX10 cells were”, “HEPES, pH 7.4 penicillin (100” for “HEPES, pH 7.4, penicillin (100”, “15 ng/ml PIX and 5” for “15 ng/ml PTX and 5”
as §4, with “[…]” for “48”

p27 = assay: Histochemical analysis of GEO tumors: p27; type: in vivo
From the text: as §1
Loda et al. (Nature Medicine 3:231–234 (1997)) discloses that the cyclin-dependent kinase (CDK) inhibitor p27 is […] related to cell entry into S phase and proliferation and that reduction of its expression correlates with poor prognosis in colon cancer patients.

[4] = test system: GEO human colon cancer cells; assay: Soft agar growth of GEO cells; type: cell-based
Experimental: Cells (10^4 cells/well) were seeded in 0.5 ml of 0.3% Difco Noble agar (Difco, Detroit, Mich.) supplemented with complete culture medium. This suspension was layered over 0.5 ml of 0.8% agar-medium base layer in 24 multiwell cluster dishes (Becton Dickinson) and treated with various concentrations of paclitaxel (day 0). The HYB 165 was added after 12 hrs (day 1) and on day 2, 3 and 4. 12 days after the last treatment, cells were stained with nitroblue tetrazolium (Sigma) and colonies larger than 0.05 mm were counted.

TGFα = assay: Histochemical analysis of GEO tumors: TGFα; type: in vivo; conditions: single agent, after two cycles
From the text: (§5) Tumor specimens from the different groups of mice were examined by histochemical analysis at different time points to evaluate the expression of a variety of biological parameters.
as §2

AR = assay: Histochemical analysis of GEO tumors: AR; type: in vivo; conditions: after two cycles
From the text: as §5, §2

[5] = test system: 1A9 human ovarian cancer cells; assay: Soft agar growth of 1A9 cells; type: cell-based
Experimental: Cell lines. The 1A9 cell line is a clone of the human ovarian carcinoma cell line, A2780. 1A9 cells were kindly provided by Giannakakou, NCI Bethesda, Md., USA. Cells were maintained in RPMI medium supplemented with 10% heat-inactivated FBS, 20 mM HEPES, pH 7.4 penicillin (100 UI/ml), streptomycin (100 μg/ml) and 4 mM glutamine (ICN, Irvine, UK) in a humified atmosphere of 95% air and 5% CO2 at 37° C.
as §4

RIα protein = assay: Histochemical analysis of GEO tumors: RIα; type: in vivo, human
From the text: as §1

**Q.** Which results are given for “HYB 165: Hybrid 18-mer mixed backbone antisense to PKA RIα, GCGUGCCTCCTCACUGGC (SEQ ID NO:4), 2-O-methyl ribonucleotides at 5′ and 3′ ends (sugars by position and backbone not given here; 2'-O-methyl ribonucleotides at both ends, mixed backbone)”?
**A.** cell proliferation by Ki67 staining (Ki67): almost completely suppressed cell proliferation; inhibition of cell growth ([1]; 0.1 μM): approximately 5%; inhibition of cell growth ([1]; 0.5 μM): about 43%; inhibition of cell growth ([1]; 1 μM): about 70%; inhibition of cell growth ([1]; 2.5 μM): over 85%; vessel formation ([2]; combined treatment with taxol and HYB 165): completely suppressed vessel formation in GEO tumors; inhibition of staining (microvessel count) ([2]; single agent, vs untreated mice or scramble MBO): about 80%; inhibition of cell growth ([3]; 0.1 μM): approximately 5%; inhibition of cell growth ([3]; 0.5 μM): about 50%; inhibition of cell growth ([3]; 1 μM): about 82%; inhibition of cell growth ([3]; 2.5 μM): over 95%; p27 expression (p27; single agent): able to increase p27 expression; increase in intensely positive cell staining for p27 (p27; taxol and antisense RIα in combination): 2.5 fold; growth inhibition ([4]; HYB 165 0.5 μM after paclitaxel 1 nM): 40%; growth inhibition ([4]; HYB 165 0.5 μM after paclitaxel 5 nM): 62%; growth inhibition ([4]; HYB 165 0.5 μM after paclitaxel 10 nM): 86%; growth inhibition ([4]; HYB 165 0.5 μM alone): about 20%; cooperative effect of the combination ([4]; HYB 165 0.5 μM, sequential combination with different doses of paclitaxel): cooperatively inhibit the growth of GEO cells; expression of TGFα (TGFα): inhibited the expression of TGF α and AR; expression of AR (AR; in combination with taxol): further enhanced; expression of AR (AR; single agent): inhibited the expression of TGF α and AR; inhibition of cell growth ([5]; 0.1 μM): approximately 5%; inhibition of cell growth ([5]; 0.5 μM): about 41%; inhibition of cell growth ([5]; 1 μM): about 90%; inhibition of cell growth ([5]; 2.5 μM): over 95%; expression of RIα protein in the tumor (RIα protein; in combination with taxol, after two cycles): further increased; expression of RIα protein in the tumor (RIα protein; single agent, after two cycles of treatment, FIG. 18): inhited expression of the target RIα protein in the tumor

— patent US7074768B2, “Modified protein kinase A-specific oligonucleotides and methods of their use” (Idera Pharmaceuticals, Inc., priority 1995, dated 2006)
